According to US20230240290A1, “USE OF (Z)-3-HEXENYL ESTERS AND METHOD FOR PROTECTING PLANTS AGAINST PESTS” (UNIVERSITAT POLITÈCNICA DE VALÈNCIA, priority 2020, published 2023):
Entries after “also recorded” stand apart in the source; their conditions may differ.

What was measured:
Tuta absoluta = test: Y-tube olfactometer preference, exposed vs intact tomato plants; type: in vivo; conditions: plants exposed 24 h vs intact plants
Text: (§1) It was studied whether the defensive activation achieved by exposure to (Z)-3-hexenyl propanoate could affect repellency and/or attraction in herbivores that attack tomatoes, the whitefly Bemisia tobaci (Gennadius) (Hemiptera: Aleyrodidae), the thrip Frankliniella occidentalis Pergande (Thysanoptera: Thripidae), the red spider Tetranychus urticae Koch (Acari: Tetranychidae) and the tomato borer, Tuta absoluta (Meyrick) (Lepidoptera: Gelechiidae), and in a natural enemy that has been used as a model organism in this crop, the parasitoid Encarsia formosa Gahan (Hymenoptera: Aphelinidae).
(§2) The last instar nymphs of B. tabaci and the pupae of E. formosa were provided by Koppert Biological Systems, S. L. (Águilas, Murcia, Spain). The recently emerged B. tabaci adults (less than 2 days old) were released into tomato plants inside 60×60×60 cm plastic cages (BugDorm-2) and placed in a climatic chamber at 25±2° C., 65±10% RH and a 14:10 h (L:D) photoperiod in IVIA. Five-day-old B. tabaci adults were used in all the experiments. In the case of E. formosa, the pupae were placed in a Petri dish 9 cm in diameter and allowed to emerge under ambient laboratory conditions (25±2° C.), with a small drop of honey as food. E. formosa females less than two days old were used in all the experiments. F. occidentalis adults came from a brood kept in captivity established in the Valencian Institute of Agrarian Research (Instituto Valenciano de Investigaciones Agrarias, IVIA) in 2010, originally from Campo de Cartagena (Murcia, Spain). The thrips brood was kept in bean pods (Phaseolus vulgaris L.; Fabales: Fabaceae) under the same conditions described above. All the F. occidentalis females used for experimentation were less than five days old. T. urticae adults were obtained from a colony established in IVIA in 2011, which initially came from clementines located in La Plana (Castelló, Spain). The mites were kept on tomato plants in a climatic chamber under the same conditions described above. T. absoluta females were obtained from colonies on tomatoes maintained in a greenhouse at IVIA at 25±4° C., 60±15% RH, and under a natural photoperiod. Newly emerged adult females less than 5 days old were used in all the assays.
(§3) To assess the preference of F. occidentalis, B. tabaci, T. urticae, T. absoluta and E. formosa for tomato plants that were previously exposed for 24 h to (Z)-3-HP relative to intact plants, a Y-shaped olfactometer was used. The plants were exposed to both volatiles as described above using the pieces of filter paper. The olfactometer (Analytical Research Systems, Gainesville, Fla.) consisted of a 2.4 cm in diameter Y-shaped glass tube with a 13.5 cm long base and two arms, each 5.75 cm long. Both side arms were connected via high-density polyethylene (HDPE) tubing to two identical glass jars (5-liter volume), each of which was connected to an air pump that produced a unidirectional humidified airflow at 150 ml/min (Pérez-Hedo et al. Journal of Pest Science 3: 543-554 (2015)).
(§4) For each species, a female was individually introduced into the inlet tube of the olfactometer and observed until she had walked at least 3 cm down one of the arms of choice or until 15 minutes had elapsed. A total of 40 valid replicates were recorded for each species for each pair of odor sources. Each individual was tested only once. […] After recording five responses, the Y-tube was rinsed with soapy water, cleaned with acetone, and allowed to dry for 5 minutes. […]

Bemisia tabaci = test: as above; type: in vivo; conditions: plants exposed 24 h vs intact plants
Text: as §1, §2, §3, §4

Tetranychus urticae = test: as above; type: in vivo; conditions: plants exposed 24 h vs intact plants
Text: as §1, §2, §3, §4

[1] = test system: Frankliniella occidentalis; test: as above; type: in vivo; conditions: plants exposed 24 h vs intact plants
Text: as §1, §2, §3, §4

Encarsia formosa = test: as above; type: in vivo; conditions: plants exposed 24 h vs intact plants
Text: as §1, §2, §3, §4

[2] = test system: SI-PI-I (marker for plant proteinase inhibitors); test: Transcriptional response of SI-PI-I in tomato plants exposed to volatiles (laboratory); type: in vivo, Solanum lycopersicum cv. Moneymaker; conditions: intact tomato plants exposed 24 h; filter paper, 1:10,000 ester:methanol; n=8
Protocol: Moneymaker tomato plants were used. Two weeks after seed germination, the seedlings were individually transplanted into pots (8×8×8 cm). The plants were kept at 25±2° C., with a constant relative humidity of 65%±5% and a 14:10 h (light:dark) photoperiod. Tomato plants that had not received any pesticide treatment at four weeks of age (about 20 cm tall) were used. All volatiles used were obtained from Sigma-Aldrich (St. Louis, Mo., USA). Each volatile was exposed by using a 2×2 cm piece of filter paper on which 10 μl of a solution containing the corresponding volatile at a concentration of 1:10,000 [(Z)-3-hexenyl ester:methanol] was impregnated as an emitting source of the corresponding volatile (Pérez-Hedo, M. et al. Biocontrol, 63: 203-213 (2018)).
To activate a plant, two pieces of filter paper impregnated with the volatile were placed at the bottom of a 30×30×30 cm plastic cage (BugDorm-1 Insect Tents; MegaView Science Co., Ltd, Taichung, Taiwan) into which the plant was introduced. A control treatment was carried out in which the two pieces of filter paper were impregnated with 10 μl of methanol. Eight repetitions per treatment were performed. The plants of the treatments were kept exposed to the volatile without disturbing for 24 hours in separate and isolated climatic chambers to avoid any interference from the volatiles and were kept at 25±2° C., 65±10% RH, and a 14:10 h (L:D) photoperiod. […]
The methodology followed for extracting and quantifying gene expression was described by Pérez-Hedo et al. Journal of Pest Science 3: 543-554 (2015). The primers used were forward primer: 5′-[…]-3′ (SEQ ID NO: 1) and reverse primer: 5′-[…]-3′ (SEQ ID NO: 2) for the quantification of PR1, forward primer: 5′-[…]-3′ (SEQ ID NO: 3) and reverse primer: 5′-[…]-3′ (SEQ ID NO: 4) for SI-PI-I, and forward primer: 5′-[…]-3′ (SEQ ID NO: 5) and reverse primer: 5′-[…]-3′ (SEQ ID NO: 6) for the SI-PI-II gene. […]

CC/C=C\CCOC(=O)CC [(Z)-3-hexenyl propanoate] was tested, and the “Response of T. absoluta females to exposed tomato plants” value (Tuta absoluta) was “repel; also recorded: repellent”, the “Response of B. tabaci females to exposed tomato plants” value (Bemisia tabaci) was “repel; also recorded: repellent” and the “Response of T. urticae females to exposed tomato plants” value (Tetranychus urticae) was “no preference”. For the same molecule, the “Response of F. occidentalis females to exposed tomato plants” value [1] was “repel; also recorded: repellent”, the “Response of E. formosa females to exposed tomato plants” value (Encarsia formosa) was “more attractive” and the “Transcriptional response of SI-PI-I compared to the control” value [2] was “significantly overexpressed”.
